Values quoted from earlier work as cited in US12318421B2 (priority 2020, dated 2025).

Biological target: α-glucosidase
Settings: values disclosed in references

SMILES: O=c1cc(-c2ccc(O)cc2)oc2cc(O)c([C@@H]3O[C@H](CO)[C@@H](O)[C@H](O)[C@H]3O)c(O)c12 [isovitexin]
- IC50 of α-glucosidase activity disclosed in references: 46.9 µg/mL
